Data set [1] can be described thus: Storage at elevated temperature/humidity, solid form checked by XRPD.
A short description of data set [2]: Gravimetric Vapor Sorption (GVS). The class given is physicochemical. The conditions noted are these: for GVS water uptake: 0-90% RH range, about 25° C.; for XRPD post GVS (form recovered after the experiment): after GVS cycle 0-90% RH. The method, then:
Sorption isotherms were obtained using a SMS DVS Intrinsic moisture sorption analyzer, controlled by DVS Intrinsic Control software v1.0.1.2 (or v 1.0.1.3). The sample temperature was maintained at about 25° C. by the instrument controls. The humidity was controlled by mixing streams of dry and wet nitrogen, with a total flow rate of about 200 mL/min. The relative humidity was measured by a calibrated Rotronic probe (dynamic range of about 1.0-100% RH), located near the sample. The weight change, (mass relaxation) of the sample as a function of % RH was constantly monitored by the microbalance (accuracy ±0.005 mg). Typically, about 18-20 mg of sample was placed in a tared mesh stainless steel basket under ambient conditions. The sample was loaded and unloaded at about 40% RH and about 25° C. (typical room conditions). A moisture sorption isotherm was performed as outlined in Table 1 (2 scans giving 1 complete cycle). The standard isotherm was performed at about 25° C. at about 10% RH intervals over a 0-90% RH range. Data analysis was carried out using Microsoft Excel using DVS Analysis Suite v6.2 (or 6.1 or 6.0). The sample was recovered after completion of the isotherm and re-analysed by XRPD.

Where a name gives a salt, the structure may show the parent alone.

Consider `CC[C@H]1[C@@H](O)[C@@H]2[C@H](CC[C@]3(C)[C@@H]([C@H](C)CCC(=O)O)CC[C@@H]23)[C@@]2(C)CC[C@@H](O)C[C@@H]12` [obeticholic acid monoammonium salt], for which, in data set [1] (25° C./97% RH, 7 days), the “Stability on storage at 25° C./97% RH (XRPD)” value is “amorphous”. Further, in data set [1] (40° C./75% RH, 7 days), the “Stability on storage at 40° C./75% RH (XRPD)” value is “unchanged”. The “Stability on storage at 40° C./75% RH (XRPD), screening sample” value in data set [1] (screening sample, 40° C./75% RH, 23 days) is given as “possible form change”.

“Obeticholic acid-ursodeoxycholic acid (2:1) cocrystal [OCA:UDCA cocrystal]”: in data set [2], the GVS water uptake entry is on record as “ca. 1 % w/w” and the “XRPD post GVS (form recovered after the experiment)” value is “no change”. Besides, in data set [2] (listed as cocrystal), the GVS water uptake was 1% water uptake and the “XRPD post GVS (form recovered after the experiment)” value is “Unchanged by XRPD”.
